Results reported in patent publication US6875851B1 (priority 1999, dated 2005).
Several values for one entry are separate records, joined by “and”; a condition that tells them apart may be missing. Equal values may be shown once. Entries after “also recorded” stand apart in the source; their conditions may differ. Read-outs that look alike come from different tables or passages of the source. Where no end group is shown, it is not given here. [ ]: non-standard residue; d: D form. The star is where a group is joined. pNA = O=[N+]([O-])c1ccc(N*)cc1; Cbz = O=C(OCc1ccccc1)*

Key:
PTP-A [1] = format: biochemical, P. gingivalis; details: for Residual activity of PTP-A, %: pH 7.6
DPP IV [2] = format: biochemical, P. gingivalis; details: pH 7.6
P. gingivalis = format: cell-based; details: for P. gingivalis growth (OD600): 37° C.
PTP-A [3] = format: biochemical, P. gingivalis; details: enzyme:substrate 1:100, 3 hours or 24 hours, 200 mM HEPES, pH 7.5, 37° C.; for Cleavage site mediated by PTP-A: 1 μg PTP-A
PTP-A [4] = format: biochemical, P. gingivalis; details: 1 mM substrate, 0.2 M HEPES, pH 7.5 at 37° C.
Target sequence in this assay (Q7MUW6 81-732 limits assumed): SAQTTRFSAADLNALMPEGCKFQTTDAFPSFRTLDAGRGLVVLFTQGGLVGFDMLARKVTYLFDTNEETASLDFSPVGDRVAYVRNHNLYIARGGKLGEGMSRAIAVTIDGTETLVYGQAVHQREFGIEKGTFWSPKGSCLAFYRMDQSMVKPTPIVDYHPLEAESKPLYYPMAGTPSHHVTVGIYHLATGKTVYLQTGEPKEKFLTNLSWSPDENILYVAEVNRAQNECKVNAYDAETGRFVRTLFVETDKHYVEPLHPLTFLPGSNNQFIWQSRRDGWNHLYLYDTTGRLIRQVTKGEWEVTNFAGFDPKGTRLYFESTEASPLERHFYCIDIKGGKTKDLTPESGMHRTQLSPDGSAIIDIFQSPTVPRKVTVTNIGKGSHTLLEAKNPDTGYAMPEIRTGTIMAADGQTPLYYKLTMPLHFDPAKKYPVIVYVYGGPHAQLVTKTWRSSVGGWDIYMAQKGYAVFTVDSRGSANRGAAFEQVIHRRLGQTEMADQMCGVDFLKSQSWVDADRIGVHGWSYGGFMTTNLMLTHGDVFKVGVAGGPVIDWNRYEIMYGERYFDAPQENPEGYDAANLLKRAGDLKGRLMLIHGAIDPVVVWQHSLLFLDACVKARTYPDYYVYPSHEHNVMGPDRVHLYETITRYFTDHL

DPP IV [5] = experiment: Cleavage specificity of DPP IV on synthetic peptides; format: biochemical, P. gingivalis; details: for Cleavage site mediated by DPP IV: same conditions as those used for PTP-A
Procedure: Enzyme Specificity—Peptides were incubated with 1 μg PTP-A at an enzyme:substrate molar ratio of 1:100 for 3 hours or 24 hours in 50 μl of 200 mM HEPES, pH 7.5, at 37° C., and the reaction stopped by acidification with trifluoroacetic acid. The samples were then subjected to reverse-phase high pressure liquid chromatography using a μBondapak C-18 column (3.9×300 mm) (Waters, Millford, Mass.) and an acetonitrile gradient (0-80% in 0.075% trifluoroacetic acid in 50 min). Each peak, detected at 220 nm, was collected, lyophilized, redissolved in 50% (volume/volume) methanol, 0.1% acetic acid and subjected to analysis by mass spectrometry.
Mass Spectrometry—A Finnigan MAT 95S, sector mass spectrometer (Finnigan MAT, Bremen, Germany) equipped with an electrospray source (ESI) was used operated essentially as described previously (Stenfors, C., et al., (1997) J. Biol. Chem. 272, 5747-5751). Peptides were identified by fitting of the obtained spectra to specific sequences using an Internet application program MsFit available at http://falcon.ludwig.ucl.ac.uk/msfit.html.

PTP-A [6] = format: biochemical, P. gingivalis

c1cnc2c(c1)ccc1cccnc12 [1,10-orthophenanthroline]
Residual activity of PTP-A, % (PTP-A [1]): 93% and 100% | Residual activity of DPP IV, % (DPP IV [2]): 100%

O=c1oc(Cl)c(Cl)c2ccccc12 [3,4-dichloroisocoumarin]
Effect on PTP-A amidolytic activity (in words) (PTP-A [1]): only a poor inhibitor | Residual activity of PTP-A, % (PTP-A [1]): 200% | Growth of P. gingivalis (P. gingivalis): inhibits growth | Residual activity of DPP IV, % (DPP IV [2]): 100%

O=C(O)CN(CCN(CC(=O)O)CC(=O)O)CC(=O)O [EDTA]
Residual activity of PTP-A, % (PTP-A [1]): 100% | Residual activity of DPP IV, % (DPP IV [2]): 100%

NC(=O)CI [Iodoacetamide]
Effect on PTP-A amidolytic activity (in words) (PTP-A [1]): stimulated enzyme amidolytic activity about two-fold | Residual activity of PTP-A, % (PTP-A [1]): 100% | Residual activity of DPP IV, % (DPP IV [2]): 100%

CC(=O)N[C@@H](CC(C)C)C(=O)N[C@@H](CC(C)C)C(=O)N[C@H](C=O)CCCNC(=N)N [Leupeptin]
Effect on PTP-A amidolytic activity (in words) (PTP-A [1]): no effect at all | Residual activity of PTP-A, % (PTP-A [1]): 100% | Residual activity of DPP IV, % (DPP IV [2]): 20%

CCN1C(=O)C=CC1=O [N-Ethylmaleimide]
Effect on PTP-A amidolytic activity (in words) (PTP-A [1]): not | Residual activity of PTP-A, % (PTP-A [1]): 98% | Residual activity of DPP IV, % (DPP IV [2]): 100%

Cl.NCCc1ccc(S(=O)(=O)F)cc1 [PEFABLOC SC, 4-(2-aminoethyl)-benzenesulfonyl-fluoride hydrochloride]
Effect on PTP-A amidolytic activity (in words) (PTP-A [1]): total loss of activity | Residual activity of PTP-A, % (PTP-A [1]): 56% | P. gingivalis growth (OD600) (P. gingivalis; Pefabloc added at 0.5 mg/ml when the optical density began to increase): decreased growth | P. gingivalis growth (OD600) (P. gingivalis; Pefabloc added at 2.0 mg/ml when the optical density began to increase): decreased growth | Growth of P. gingivalis (P. gingivalis; treatment of cultures in lagphase and early logarithmic growth): inhibits growth | Residual activity of DPP IV, % (DPP IV [2]): 100%

O=S(=O)(F)Cc1ccccc1 [Phenylmethanesulfonyl fluoride]
Effect on PTP-A amidolytic activity (in words) (PTP-A [1]): no effect at all

Ac-Val-Pro-Pro-Gly-Glu-Asp-Ser-Lys (Ac-VPPGEDSK) [Peptide 9]
Cleavage of peptide by PTP-A (in words) (PTP-A [3]): resistance to enzymatic hydrolysis

Cbz-Ala-Pro-pNA
Hydrolysis of chromogenic substrate by PTP-A (PTP-A [4]): only H-Ala-Phe-Pro-pNA was hydrolyzed

Cbz-Gly-Pro-pNA
Hydrolysis of chromogenic substrate by PTP-A (PTP-A [4]): only H-Ala-Phe-Pro-pNA was hydrolyzed

H-Ala-Arg-Pro-↓-Ala-D-Lys-amide (H-ARPA[dK]-NH2; SMILES C[C@H](N)C(=O)N[C@@H](CCCNC(=N)N)C(=O)N1CCC[C@H]1C(=O)N[C@@H](C)C(=O)N[C@H](CCCCN)C(N)=O) [Peptide 12]
Cleavage site mediated by PTP-A (PTP-A [3]): H-Ala-Arg-Pro-↓-Ala-D-Lys-amide

H-Ala-Phe-Pro-pNA
Hydrolysis of chromogenic substrate by PTP-A (PTP-A [4]): hydrolyzed

H-Ala-Pro-↑-Val-Arg-Ser-Leu-Asn-Cys-Thr-Leu-Arg-Asp-Ser-Gln-Gln-Lys (APVRSLNCTLRDSQQK) [Peptide 24]
Cleavage site mediated by DPP IV (DPP IV [5]): H-Ala-Pro-↑-Val-Arg-Ser-Leu-Asn-Cys-

H-Arg-Gly-Pro-↓-Phe-Pro-Ile (RGPFPI) [Peptide 11]
Cleavage site mediated by PTP-A (PTP-A [3]): H-Arg-Gly-Pro-↓-Phe-Pro-Ile

H-Arg-His-Pro-↓-Lys-Tyr-Lys-Thr-Glu-Leu (RHPKYKTEL) [Peptide 14]
Cleavage site mediated by PTP-A (PTP-A [3]): H-Arg-His-Pro-↓-Lys-Tyr-Lys-Thr-Glu-Leu

H-Arg-Pro-Pro-↓-Gly-Phe (RPPGF) [Peptide 2]
Cleavage site mediated by PTP-A (PTP-A [3]): H-Arg-Pro-Pro-↓-Gly-Phe

H-Arg-Pro-Pro-↓-Gly-Phe-Ser-Pro-Phe-Arg (RPPGFSPFR) [Peptide 1]
Cleavage site mediated by PTP-A (PTP-A [3]): H-Arg-Pro-Pro-↓-Gly-Phe-Ser-Pro-Phe-Arg

H-Arg-Pro-↑-Lys-Pro-↑-Gln-Gln-Phe-Phe-Gly-Leu-Met-NH2 (H-RPKPQQFFGLM-NH2) [Peptide 6]
Cleavage by DPP IV (in words) (DPP IV [5]): found to cleave | Cleavage site mediated by DPP IV (DPP IV [5]): Pro-↑-Lys; also recorded: Pro-↑-Gln

H-Gly-Pro-pNA
Hydrolysis of chromogenic substrate by PTP-A (PTP-A [4]): only H-Ala-Phe-Pro-pNA was hydrolyzed

H-Gly-Val-Pro-↓-Lys-Thr-His-Leu-Glu-Leu (GVPKTHLEL) [Peptide 15]
Cleavage site mediated by PTP-A (PTP-A [3]): H-Gly-Val-Pro-↓-Lys-Thr-His-Leu-Glu-Leu

H-Leu-Pro-↑-Asp-Leu-Asp-Ser-Ser-Leu-Ala-Ser-Ile-Gln-Glu-Leu-Leu-Ser-Pro-Gln-Glu-Pro-Pro-Arg-Pro-Pro-Glu-Ala (LPDLDSSLASIQELLSPQEPPRPPEA) [Peptide 20]
Cleavage by DPP IV (in words) (DPP IV [5]): found to cleave | Cleavage site mediated by DPP IV (DPP IV [5]): H-Leu-Pro-↑-Asp-Leu-Asp-Ser-Ser-Leu-Ala-

H-Lys-Arg-Pro-Pro-Gly-Phe-Ser-Pro-Phe-Arg (KRPPGFSPFR; printed: Lys-Arg-Pro-Pro-Gly-Phe-Ser-Pro-Phe-Arg) [Peptide 3]
Cleavage of peptide by PTP-A (in words) (PTP-A [3]): significant exception

H-Pro-Asn-Pro-↓-Asn-Gln-Gly-Asn-Phe-Ile (PNPNQGNFI) [Peptide 13]
Cleavage site mediated by PTP-A (PTP-A [3]): H-Pro-Asn-Pro-↓-Asn-Gln-Gly-Asn-Phe-Ile

H-Pro-pNA
Hydrolysis of chromogenic substrate by PTP-A (PTP-A [4]): only H-Ala-Phe-Pro-pNA was hydrolyzed

H-Ser-Pro-↑-Tyr-Ser-Ser-Asp-Thr-Thr (SPYSSDTT) [Peptide 23]
Cleavage site mediated by DPP IV (DPP IV [5]): H-Ser-Pro-↑-Tyr-Ser-Ser-Asp-Thr-Thr

H-Val-Glu-Pro-↓-Ile-Pro-Tyr (VEPIPY) [Peptide 10]
Cleavage site mediated by PTP-A (PTP-A [3]): H-Val-Glu-Pro-↓-Ile-Pro-Tyr

H-Val-Pro-Pro-↓-Gly-Glu-Asp-Ser-Lys (VPPGEDSK) [Peptide 8]
Cleavage site mediated by PTP-A (PTP-A [3]): H-Val-Pro-Pro-↓-Gly-Glu-Asp-Ser-Lys

H-Val-Pro-Pro-↓-Gly-Glu-Asp-Ser-Lys-Glu-Val-Ala-Ala-Pro-His-Arg-Gln (VPPGEDSKEVAAPHRQ) [Peptide 7]
Cleavage site mediated by PTP-A (PTP-A [3]): H-Val-Pro-Pro-↓-Gly-Glu-Asp-Ser-Lys-Glu-

H-YRPPGFSPFR [Peptide 4]
Cleavage of peptide by PTP-A (in words) (PTP-A [3]): significant exception

IGVHGWXYGGFMTINL [SEQ ID NO:24]
Cleavage by DPP IV (in words) (DPP IV [5]): found to cleave

NH2-SAQTTRFSAADLNALMP (H-SAQTTRFSAADLNALMP; listed as Porphyromonas gingivalis) [SEQ ID NO:23]
Cleavage by DPP IV (in words) (DPP IV [5]): found to cleave

Val-Pro
Residual activity of PTP-A, % (PTP-A [1]): 100% | Residual activity of DPP IV, % (DPP IV [2]): 1%

albumin
Cleavage of protein by PTP-A (in words) (PTP-A [6]): absence of any proteolytic activity

gelatin
Cleavage of protein by PTP-A (in words) (PTP-A [6]): absence of any proteolytic activity

interleukin 6: protein substrate
Cleavage of protein by PTP-A (in words) (PTP-A [6]): able to cleave a tripeptide

α1-proteinase inhibitor: Human plasma inhibitor
Effect on PTP-A amidolytic activity (in words) (PTP-A [1]): did not affect the enzyme activity | Cleavage of protein by PTP-A (in words) (PTP-A [6]): nor were they cleaved by PTP-A
